According to publication PMC11718441, “Bis-3-chloropiperidines: a novel motif for anthelmintic drug design” (RSC Advances, 2025):
In brackets after ≈: the same amount, converted by molar mass. Like-named read-outs stand apart in the source and are kept apart here.

Columns and labels:
C. elegans N2 = assay: whole plant or invertebrate; assay type: cell-based, Caenorhabditis elegans
Source text: (§1) The cuticle of C. elegans strain DC19 is known to be more permeable for small molecules compared to the wildtype N2.[30] DC19 is thereby considered an informative drug-sensitive test organism. In our assays, we determined the minimum mobility inhibitory concentration (MMIC) as a proxy for anthelmintic activity. […] In contrast, MMICs of some small molecule anthelmintics such as albendazole, mebendazole or PF-1022A were lower for DC19 (Fig. S1 ^†). […]
(§2) 2.2 In vitro tests against Caenorhabditis Elegans
(§3) The minimal motility inhibitory concentration (MMIC) of compounds 1-22 against C. elegans was determined as described before.3 Both strains, C. elegans N2 and DC19 were treated identically. Briefly, pre-cultures of C.elegans were kept on NGM agar plates infused with auxotrophic E.coli OP50 as food source.4 After 4 days the plates contained sufficient gravid worms, respectively. Worms were washed from the plates with M9 buffer using wide bore pipette tips. Egg preparation was carried out by treating the harvested worms with an alkaline hypochlorite solution (5 M NaOH + 5 % NaOCl 1:2) in polypropylene tubes. Larvae and adult […]
(§4) We carried out 3 washing steps (M9 buffer) to remove carry-over hypochlorite solution. Subsequently, the eggs were incubated overnight in NGM broth on a rotator to yield synchronized hatched L1/L2 larvae. The larvae solution was adjusted to 100 worms/mL and supplemented with cholesterol (5 µg/mL), carbenicillin (25 µg/mL) and E.coli OP50 (0.5%). This assay solution was distributed into 96 well plates and incubated with a dilution series of compounds 1-22 (64-0.5 µg/mL). An additional eight-point dilution series of ivermecin (40 – 0.3 ng/mL) was used as positive control on each assay plate. Solvent background was controlled by supplementation of pure DMSO without any compound. Assays were incubated for 2 days at room temperature. Finally, a cell imaging multimode reader (Cytation™ 5) was used to record short videos (1.5 seconds) of each individual test well. The videos were used to evaluate the worm motility.

C. elegans DC19 = assay: whole plant or invertebrate; assay type: cell-based, Caenorhabditis elegans
Source text: as §1, §2, §3, §4

[1] = tested on: Septoria tritici MUCL45408; assay: Minimum inhibitory concentration (MIC), S. tritici (ATP quantification); assay type: cell-based; conditions: for MIC: Zymoseptoria tritici, read-out: MIC St
Experimental: (§5) The minimum inhibitory concentration (MIC) of the synthesized compounds was initially determined against three microbial indicator strains (Escherichia coli ATCC35218, […] ATCC33592, Septoria tritici MUCL45408). […]
(§6) 2. Microbial and parasitological studies
(§7) The minimum inhibitory concentration (MIC) of the synthesized compounds was determined against three microbial indicator strains (E. coli ATCC35218, S. aureus ATCC33592 and S. tritici MUCL45408) as previously described.1,2 All samples were dissolved in DMSO and tested in triplicate. Briefly, a pre-culture of E. coli and S. aureus was prepared by incubating the strains in cation adjusted Mueller Hinton 2 broth (Becton Dickinson, Sparks, NV, USA) at 37°C and 180 rpm overnight. The cell density of adjusted to 5 × 10^5 cells/mL before assays were incubated at 37 °C, 180 rpm and 85% rH. Three distinct dilution series of standard antibiotics (gentamicin, rifampicin, and tetracycline) were used as positive controls on each assay plate. Inoculated medium without test compound or positive control was used as negative control.
Medium background was averaged from 5 replicates. The turbidity of each well was measured with a microplate spectrophotometer at 600 nm (LUMIstar® Omega, BMG Labtech) and growth inhibition was calculated relative to the absorption of the controls. For S. tritici MUCL45408 inoculated at a density of 1 × 10^5 cells/mL in potato […]
dextrose medium. Septoria assay plates were incubated for 4 days at 25 °C, 180 rpm and 85% rH. Tebuconazole, amphotericin B, and nystatin were used as positive controls. Cell viability was evaluated via ATP quantification (BacTiter-Glo™, Promega GmbH, Walldorf, Germany) according to the manufacturer’s instructions. […]

[2] = tested on: Escherichia coli ATCC35218; assay: microbe, parasite or virus in culture; assay type: cell-based; conditions: ATCC35218, read-out: MIC Ec
Experimental: as §5, §6
as §7, with “and tetracycline) were used as positive controls on each assay plate. Inoculated medium without test compound or positive control was used as negative control.” left out
(§8) medium without test compound or positive control was used as negative control.
(§9) Medium background was averaged from 5 replicates. The turbidity of each well was […]

S. aureus ATCC33592 = assay: microbe, parasite or virus in culture; assay type: cell-based; conditions: Staphylococcus aureus, ATCC33592, read-out: MIC Sa
Experimental: as §5, §6
as §7, with “and tetracycline) were used as positive controls on each assay plate. Inoculated medium without test compound or positive control was used as negative control.” left out
as §8, §9

MDCK II cells = assay: In vitro cytotoxicity, CellTiter-Glo, MDCK II cells; conditions: 100 μM, 48 h; cell viability less than 80% relative to DMSO control = cytotoxic
[3] = Figure S1, common small molecule anthelminthics

Abamectin [reference compound]
C. elegans MMIC N2 (C. elegans N2; [3]): < 0.08 µg/mL | C. elegans MMIC DC19 (C. elegans DC19; [3]): < 0.08 µg/mL

CC(C)(C)C(O)(CCc1ccc(Cl)cc1)Cn1cncn1 (stereo not drawn) [TEB, tebuconazole, reference compound]
MIC ([1]; 96 h, S. tritici MUCL45408, 4 days): > 0.03 µg/mL

C[C@@H]1[C@H](O)[C@@H](C)/C=C/C=C/CC/C=C/C=C/C=C/C=C/C(O[C@H]2O[C@H](C)[C@@H](O)[C@H](N)[C@@H]2O)CC2O[C@](O)(CC(O)C(O)CCC(O)CC(O)CC(O)CC(=O)O[C@H]1C)CC(O)C2C(=O)O (stereo partly drawn) [NYS, nystatin, reference compound]
MIC St ([1]; S. tritici MUCL45408, 4 days): 0.25 µg/mL (≈ 0.27 µM)

CCCSc1ccc2nc(NC(=O)OC)[nH]c2c1 [Albendazole, reference compound]
C. elegans MMIC N2 (C. elegans N2): 0.16 µg/mL | C. elegans MMIC DC19 (C. elegans DC19): < 0.08 µg/mL

CO[C@H]1/C=C/O[C@@]2(C)Oc3c(C)c(O)c4c(O)c(c(/C=N/N5CCN(C)CC5)c(O)c4c3C2=O)NC(=O)/C(C)=C\C=C\[C@H](C)[C@H](O)[C@@H](C)[C@@H](O)[C@@H](C)[C@H](OC(C)=O)[C@@H]1C [RIF, rifampicin, reference compound]
MIC [2]: 4 µg/mL (≈ 4.86 µM) | MIC (S. aureus ATCC33592): > 64 µg/mL

C[C@@H]1[C@H](O)[C@@H](C)/C=C/C=C/C=C/C=C/C=C/C=C/C=C/[C@H](O[C@@H]2O[C@H](C)[C@@H](O)[C@H](N)[C@@H]2O)C[C@@H]2O[C@](O)(C[C@@H](O)C[C@@H](O)[C@H](O)CC[C@@H](O)C[C@@H](O)CC(=O)O[C@H]1C)C[C@H](O)[C@H]2C(=O)O [AMP, amphotericin B, reference compound]
MIC ([1]; MUCL45408, 96 h): 0.125 µg/mL (≈ 0.135 µM)

CC1(C)CC(Cl)CN(Cc2cccc(CN3CC(Cl)CC(C)(C)C3)n2)C1 (stereo not drawn) [Compound 6]
MDCKII cytotoxicity (MDCK II cells): + (“+” (toxic)) | MIC [2]: > 64 µg/mL | MIC (S. aureus ATCC33592): 64 µg/mL (≈ 161 µM) | minimal effective concentration (C. elegans N2; Caenorhabditis elegans, 48 h, read-out: MMIC N2): 64 µg/mL | MIC ([1]; MUCL45408, 96 h): > 64 µg/mL

c1ccc([C@H]2CN3CCSC3=N2)cc1 [Levamisole, reference compound]
C. elegans MMIC N2 (C. elegans N2): 0.3 µg/mL | C. elegans MMIC DC19 (C. elegans DC19): 0.3 µg/mL

O=C(C1CCCCC1)N1CC(=O)N2CCc3ccccc3C2C1 (stereo not drawn) [Praziquantel, reference compound]
C. elegans MMIC N2 (C. elegans N2; [3]): > 10 µg/mL | C. elegans MMIC DC19 (C. elegans DC19; [3]): > 10 µg/mL

CC(C)C[C@H]1C(=O)O[C@H](Cc2ccccc2)C(=O)N(C)[C@@H](CC(C)C)C(=O)O[C@H](C)C(=O)N(C)[C@@H](CC(C)C)C(=O)O[C@H](Cc2ccccc2)C(=O)N(C)[C@@H](CC(C)C)C(=O)O[C@H](C)C(=O)N1C [PF-1022A, reference compound]
C. elegans MMIC N2 (C. elegans N2; [3]): 10 µg/mL | C. elegans MMIC DC19 (C. elegans DC19; [3]): 2.5 µg/mL

CNC(=O)O/N=C/C(C)(C)SC [Aldicarb, reference compound]
C. elegans MMIC N2 (C. elegans N2; [3]): > 10 µg/mL | C. elegans MMIC DC19 (C. elegans DC19; [3]): > 10 µg/mL

CNC(C)C1CCC(N)C(OC2C(N)CC(N)C(OC3OCC(C)(O)C(NC)C3O)C2O)O1 (stereo not drawn) [GEN, gentamicin, reference compound]
MIC [2]: 1 µg/mL (≈ 2.09 µM) | MIC (S. aureus ATCC33592): 0.5 µg/mL (≈ 1.05 µM)

C[C@H](CCC(=O)O)C[C@H](C)C[C@H](C)C(=O)/C=C(\O)[C@H](C)C[C@H](C)C/C=C/[C@@H](C)[C@@H](O)[C@@H](C)[C@@H](O)C[C@@H]1CC[C@@](C)([C@H]2CC[C@@](C)([C@@H](C)O)O2)O1 [ION, ionomycin, reference compound]
MDCKII cytotoxicity (MDCK II cells): + (“+” (toxic))

COC(=O)Nc1nc2ccc(C(=O)c3ccccc3)cc2[nH]1 [Mebendazole, reference compound]
C. elegans MMIC N2 (C. elegans N2; [3]): 1.25 µg/mL | C. elegans MMIC DC19 (C. elegans DC19; [3]): 0.3 µg/mL

CC(=O)Oc1ccccc1C(=O)Nc1ncc([N+](=O)[O-])s1 [Nitazoxanide, reference compound]
C. elegans MMIC N2 (C. elegans N2; [3]): > 10 µg/mL | C. elegans MMIC DC19 (C. elegans DC19; [3]): > 10 µg/mL

ivermectin [IVR, reference compound]
MMIC N2 (C. elegans N2; C. elegans N2, 2 days): 0.005 µg/mL | C. elegans MMIC N2 (C. elegans N2; [3]): 0.005 µg/mL | MMIC DC19 (C. elegans DC19; C. elegans DC19, 2 days): 0.005 µg/mL | C. elegans MMIC DC19 (C. elegans DC19; [3]): 0.005 µg/mL
